Source: patent US8957087B2, “Heterocyclic substituted acardite derivate and application thereof” (Jiangsu Provincial Institute of Materia Medica Co., Ltd., priority 2009, dated 2015)

Columns and labels:
[1] = tested on: human high-metastic lung cancer cell 95D; test: Inhibition of human high-metastic lung cancer cell 95D migration (Boyden Chamber Transwell); type: cell-based; details: Final concentration 1 x 1.0*10^(−5) mol/L
In short: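 Boyden Transwell migration (8 μm pores) of 95D cells, RPMI-1640 with 10% FBS versus serum-free medium; inhibition rate calculated.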

[2] = tested on: Raf-1(truncated); test: Raf-1 inhibitor screening by chemoluminescence method; type: biochemical; details: Final concentration 1 x 1.0*10^−5 mol/ml
Excerpt: 1. Inhibitory activity of the compound of the present invention on raf kinase
Raf-1 inhibitor screening by chemoluminescence method
Westernblot electrophoresis apparatus Rotaryshaker
Raf-1(truncated), Magnesium/ATP Cocktail, MEK1 unactive

[3] = tested on: human lung cancer cell strain A549; test: MTT assay, inhibition of growth of human lung cancer cell strain A549; type: cell-based
In short: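 A549 cells grown in F12 with 10% FBS; growth read by MTT, inhibition rate from blank-corrected OD of drug wells versus control wells.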

[4] = tested on: human lung cancer A549 transplantation tumor; type: in vivo; details: BALB/cA nude mice; 60 mg/kg, 6 times every week for 3 weeks; Sorafenib oral 60 mg/kg
In short: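 Female BALB/cA nude mice, 35-40 days old, bearing A549 human lung cancer transplants; 6 per treatment group, 12 saline controls. Compound given at 60 mg/kg, 6 times weekly for 3 weeks, then observed one week.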

[5] = tested on: human liver cancer cell bel-7402 transplantation tumor; type: in vivo; details: BALB/cA nude mice; 60 mg/kg, 6 times every week for 3 weeks; Sorafenib oral 60 mg/kg
In short: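 Female BALB/cA nude mice (35–40 days, 18–22 g) bearing Bel-7402 xenografts; 6 mice per treated group, 12 in saline controls. Compound dosed at 60 mg/kg, 6 times weekly for 3 weeks, followed by one week of observation; tumor inhibition rate scored against controls.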

[6] = tested on: mice S180 sarcoma; test: Experimental therapeutic action on S180 sarcoma mice; details: mice S180 sarcoma, 60 mg/kg orally for 9 days
Procedure: Experimental therapeutic action of the compound in the present invention on S180 sarcoma mice
18-25 g female ICR mice and well grown 7-11 day old mice sarcoma S180 tumor seeds were selected, and the seeds were inoculated into the subcutaneous at the right axillary. After inoculated 24 hours, these mice were randomly divided into cages and orally administrated 60 mg/kg for 9 days. On 10 day, the animals were killed and weighed, and the tumor weights were weighed to calculate average tumor weight in each group, followed by calculating the tumor inhibition rate according to the following formula and T test.

[7] = tested on: renal carcinoma cell line GCR-1 transplanted tumor; type: in vivo, BALB/cA nude mice; details: BALB/cA nude mice; 60 mg/kg, 6 times every week for 3 weeks; Sorafenib oral 60 mg/kg
In short: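 Female BALB/cA nude mice (18–22 g) bearing GCR-1 renal carcinoma xenografts, 6 per treated group, 12 saline controls. Drug given at 60 mg/kg, 6 times weekly for 3 weeks, then one week of observation; tumor inhibition rate reported.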

[8] = tested on: Human colon cancer HT-29 transplantable tumor; test: Human colon cancer HT-29 transplantable tumor in nude mice; details: HT-29 in nude mice, 60 mg/kg ig 9 times
[9] = tested on: lung cancer cell A549; test: Effects on the adhesive ability of lung cancer cell A549; type: cell-based, human; details: Final concentration 1 x 1.0*10^(−5) mol/L
In short: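 A549 cells in 1640 medium with 10% FBS tested for adhesion to gelatin versus poly-lysine (PLL), with CCK8 used as read-out. Inhibition rate derived from the gelatin/PLL adhesion OD ratio of dosed cells relative to the undosed cell group.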

[10] = tested on: human umbilical vein endothelial cell HUVEC; test: Growth of human umbilical vein endothelial cell HUVEC by CCK8 method; type: cell-based; details: Final concentration 1 x 1.0*10^(−5) mol/L
In short: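 HUVEC cells were grown in 1640 medium with 10% FBS, and growth was measured by the CCK8 method. OD values of drug and control wells were corrected by subtracting the blank-well OD.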

[11] = tested on: human umbilical vein endothelial cell HUVEC; test: Lumen formation ability of HUVEC (Matrigel method); type: cell-based; details: Final concentration 1 x 1.0*10^(−5) mol/L
In short: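 HUVEC at passage 3–5, cultured in M199 at 37° C under 5% CO2, were plated on Matrigel with compound. Spontaneous lumen formation was scored as an inhibition rate.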

| Compound | Inhibition rate, 95D cell strain migration [1] [%] | Inhibition rate % on raf kinase [2] [%] | Inhibition rate, growth of human lung cancer cell A549 [3] [%] | Relative tumor reproduction rate T/C (%) on human lung cancer A549 transplantation tumor in nude mice [4] [%] | Relative tumor reproduction rate T/C (%) on human liver cancer cell bel-7402 transplantation tumor model in nude mice [5] [%] | Tumor growth inhibition rate (%) [6] [%] | Relative tumor reproduction rate T/C (%) on human renal carcinoma GCR-1 cell transplanted tumor model in nude mice [7] [%] | Relative tumor reproduction rate T/C (%) [8] [%] | Inhibition rate, adhesion ability of human lung cancer cell A549 [9] [%] | Inhibition rate, growth of HUVEC cell [10] [%] | Inhibition rate, lumen formation ability of HUVEC [11] [%] |
| --- | --- | --- | --- | --- | --- | --- | --- | --- | --- | --- | --- |
| COc1ncncc1Oc1ccc(NC(=O)Nc2ccc(F)c(C(F)(F)F)c2)cc1 [Compound 23, N-(4-fluoro-3-(trifluoromethyl)phenyl)-N′-(4-(5-(4-methoxypyrimidinyl)oxy)phenyl)urea] | 85.53 | 89.9 | 55.41 | 17.1 | 17.7 | 51.5 | 9.1 | 39.7 | 77.56 | 17.41 | 97.56 |
| COc1ncncc1Oc1ccc(NC(=O)Nc2ccc(Br)c(C(F)(F)F)c2)cc1 [Compound 24, N-(4-bromo-3-(trifluoromethyl)phenyl)-N′-(4-(5-(4-methoxypyrimidinyl)oxy)phenyl)urea] | 85.48 | 91.3 | 86.32 | 15.6 | 16.8 | 54.6 | 10.8 | 37.8 | 73.30 | 13.32 | 93.78 |
| Nc1ccc2c(Oc3ccc(NC(=O)Nc4ccc(Cl)c(C(F)(F)F)c4)cc3)cncc2c1 [Compound 25, N-(4-chloro-3-(trifluoromethyl)phenyl)-N′-(4-(4-(7-amino-isoquinolyl)oxy)phenyl)urea] | 59.76 | 11.5 | 63.26 | 39.4 | 29.1 | 55.8 | 31.2 | 79.5 | 63.51 | 23.26 | 79.79 |
| Nc1ccc2c(Oc3ccc(NC(=O)Nc4ccc(F)c(C(F)(F)F)c4)cc3)cncc2c1 [Compound 26, N-(4-fluoro-3-(trifluoromethyl)phenyl)-N′-(4-(4-(7-amino-isoquinolyl)oxy)phenyl)urea] | 60.52 | 15.3 | 55.50 | 33.1 | 36.1 | 7.6 | 24.2 | 41.1 | 68.57 | 32.50 | 70.53 |
| Nc1ccc2c(Oc3ccc(NC(=O)Nc4ccc(Br)c(C(F)(F)F)c4)cc3)cncc2c1 [Compound 27, N-(4-bromo-3-(trifluoromethyl)phenyl)-N′-(4-(4-(7-amino-isoquinolyl)oxy)phenyl)urea] | 59.77 | 8.8 | 64.71 | 36.3 | 29.2 | 55.1 | 26.2 | 80.3 | 94.77 | 24.73 | 89.75 |
| Cc1cc(Oc2ccc(NC(=O)Nc3ccc(Cl)c(C(F)(F)F)c3)cc2)c[nH]1 [Compound 28, N-(4-chloro-3-(trifluoromethyl)phenyl)-N′-(4-(4-(2-methyl-pyrryl)oxy)phenyl)urea] | 70.53 | 33.5 | 88.52 | 13.6 | 17.5 | 11.5 | 11.4 | 39.1 | 90.53 | 20.55 | 89.52 |
| Cc1cc(Oc2ccc(NC(=O)Nc3ccc(Br)c(C(F)(F)F)c3)cc2)c[nH]1 [Compound 30, N-(4-bromo-3-(trifluoromethyl)phenyl)-N′-(4-(4-(2-methyl-pyrryl)oxy)phenyl)urea] | 69.62 | 16.8 | 85.47 | 13.1 | 16.1 | 55.2 | 10.2 | 79.5 | 92.44 | 25.46 | 90.66 |
| CCc1cc(NC(=O)Nc2ccc(Oc3ccnc4cc(F)c(OC)cc34)cc2)ccc1Cl [Compound 31, N-(4-chloro-3-ethylphenyl)-N′-(4-(4-(6-methoxyl-7-fluoro-quinolinyl)oxy)phenyl)urea] | 76.18 | 89.4 | 46.78 | 38.7 | 33.4 | 50.3 | 31.4 | 50.3 | 66.77 | 26.70 | 66.77 |
